In publication PMC6172068 (Cancer Science, 2018):

How the values were obtained:
[1] = Plasma pharmacokinetics after single and multiple doses; format: in vivo, Japanese patients
Urine pharmacokinetics = format: in vivo, Japanese patients
[2] = tested on: relapsed/refractory (R/R) AML; settings: cited from earlier work
FLT3 = settings: preclinical studies; cited from earlier work
AXL = settings: preclinical studies; cited from earlier work
[3] = tested on: anaplastic lymphoma kinase; settings: preclinical studies; cited from earlier work
[4] = tested on: leukocyte receptor tyrosine kinase; settings: preclinical studies; cited from earlier work
[5] = tested on: FLT3 receptors expressing FLT3-ITD; settings: leukemic cells; cited from earlier work

In the case of `CCc1nc(C(N)=O)c(Nc2ccc(N3CCC(N4CCN(C)CC4)CC3)c(OC)c2)nc1NC1CCOCC1` [gilteritinib], the “accumulation relative to baseline” value ([1]; after multiple dose administration) is reported as ~8 fold, the half-life ([1]; human, plasma, oral) is reported as 84 to 126 h and the Tmax ([1]; human, plasma, oral, Median tmax, after administration of single or multiple doses) is reported as 3 to 7 h. The “achievement of steady-state gilteritinib plasma concentrations (mean trough concentrations)” value ([1]; once-daily dosing, Day 1 Cycle 1 through Day 1 Cycle 2) was “by Day 15 Cycle 1”, the exposure versus dose ([1]; single-dose and multiple-dose) was “increased in a dose‐proportional manner” and the “mean percentage of unchanged excreted gilteritinib (urine)” value (Urine pharmacokinetics; after a single dose (data not shown)) was ≤ 3.6%. The “mean percentage of unchanged excreted gilteritinib (urine)” value (Urine pharmacokinetics; after multiple doses) was ≤ 13.1%, the “median OS duration” value ([2]; doses ≥80 mg/d) was 31 weeks and the “overall response rate (ORR)” value ([2]; doses ≥80 mg/d) was 52%. The “maximum tolerated dose (MTD)” value ([2]; once-daily oral, R/R AML, USA, Germany and Italy) was 300 mg/day, the “inhibition of FLT3” value (FLT3) was “robust inhibitor” and the “inhibition of AXL” value (AXL) was “robust inhibitor”. The “inhibition of anaplastic lymphoma kinase” value [3] was “robust inhibitor”, the “inhibition of leukocyte receptor tyrosine kinase” value [4] was “robust inhibitor” and the “inhibition of FLT3 receptors expressing FLT3-ITD” value [5] was “strongly inhibited”.
